Data on 6 molecules can be found in patent US20230233515A1, “PHOTODYNAMIC ANTI-GRAM-POSITIVE BACTERIAL ACTIVITY OF PHARMACEUTICAL-GRADE ROSE BENGAL” (priority 2021, published 2023).

The test system of experiment [1] is M.smegmatis 607™ (RB mutant). In kind it is cell-based, Mycobacterium smegmatis. Particulars: for MIC (µg/mL) against M.smegmatis 607™ (RB mutant): triplicate.
Experiment [2] has as its system M.smegmatis 607™ (wild-type). As to the kind of experiment: MIC against M.smegmatis, dark. The class given is cell-based, Mycobacterium smegmatis. Particulars: dark condition, triplicate.
In experiment [3] the test system is biofilms of S.aureus 6508. As to the kind of experiment: Anti-biofilm assay. Particulars: linezolid at 600 µg/mL, compared with RB 30.0 µg/mL. The class given is cell-based, Staphylococcus aureus. On the procedure:
We applied linezolid as a positive control at very high concentration of 600 µg/mL (>100xMIC for the planktonic cells) in our biofilm assays.
The biofilms were generated on 12-well plates by incubating each bacterium for five days. The planktonic bacteria in the culture media were gently removed, and fresh media were placed. […] An aliquot of each culture was diluted (x10,000 or x100,000) on agar plates at 37° C. for 24 h. CFU/mL was counted.

Values after ≈ are worked out from the molar mass of the structure shown. Read-outs that look alike come from different tables or passages of the source.

Take `NNC(=O)c1ccncc1` [Isoniazid, isoniazid]: the “susceptibility of the RB-resistant strain to the drug” value (“susceptibility” below) in experiment [1] (dark condition) is listed as “cross-resistance”.

Consider `NC[C@H]1O[C@@H](O[C@H]([C@H]2O[C@@H](n3ccc(=O)[nH]c3=O)[C@H](O)[C@@H]2O)[C@H](NCCCC(=O)NCc2ccc(N3CCC(Oc4ccc(OC(F)(F)F)cc4)CC3)cc2)C(N)=O)[C@H](O)[C@@H]1O` [APPB, aminouridyl phenoxypiperidinylbenzyl butanamide], for which the “MIC (µg/mL) against M.smegmatis 607™ (wild-type)” value in experiment [2] is on record as 0.20 µg/mL (≈ 0.227 µM). In experiment [1] (dark condition), the “susceptibility” value is listed as “susceptible” and the “MIC (µg/mL) against M.smegmatis 607™ (RB mutant)” value worked out at 0.20 µg/mL (≈ 0.227 µM).

With `CCc1cc(C(N)=S)ccn1` [Ethionamide, ethionamide], the “susceptibility” value in experiment [1] was “susceptible”.

The term MIC denotes the lowest concentration that inhibits growth of the organism. Read a low MIC as inhibition by little substance. In experiment [2] (Mycolicibacterium smegmatis), `NCC[C@H](O)C(=O)N[C@@H]1C[C@H](N)[C@@H](O[C@H]2O[C@H](CN)[C@@H](O)[C@H](O)[C@H]2O)[C@H](O)[C@H]1O[C@H]1O[C@H](CO)[C@@H](O)[C@H](N)[C@H]1O` [Amikacin, amikacin] gave a minimal inhibitory concentration (MIC) of 0.78 µg/mL (≈ 1.33 µM). The “susceptibility” value in experiment [1] (dark condition) is recorded as “susceptible”.

As to capreomycin, the “MIC (µg/mL) against M.smegmatis 607™ (wild-type)” value in experiment [2] came to 3.13 µg/mL. In experiment [1] (dark condition), the “susceptibility” value is on record as “susceptible” and the “MIC (µg/mL) against M.smegmatis 607™ (RB mutant)” value turned out to be 3.13 µg/mL.

Turning to `CC(=O)NC[C@H]1CN(c2ccc(N3CCOCC3)c(F)c2)C(=O)O1` [linezolid, reference compound], the biofilm eradication efficacy entry in experiment [3] is “same level of efficacy”.
